Results taken from publication PMC11251039, “Harnessing cholesterol uptake of malaria parasites for therapeutic applications” (EMBO Molecular Medicine, 2024).
Several values for one entry are separate records, joined by “and”; a condition that tells them apart may be missing. Equal values may be shown once.

Legend:
[1] = test system: human foreskin fibroblasts (HFF); test: Human foreskin fibroblast growth inhibition assay (SYBR Safe); assay type: cell-based; conditions: 72 h
Experimental: HFF cell growth inhibition assays commenced by adding 5000 cells to each well of a 96-well plate. 10 µg/mL cycloheximide was used as a no-growth control. DNA replication (indicating growth) was measured at the specified time using SYBR Safe DNA Gel Stain (Invitrogen 33102) and a fluorescence microplate reader. […]
Human Foreskin Fibroblast Growth Inhibition Assays:
The HFF cell line was maintained under routine culture conditions in DMEM containing 3.7 g/L NaHCO3 supplemented with 10% v/v newborn calf serum (NCS), 50 units/mL penicillin, 50 μg/mL streptomycin, 10 μg/mL gentamicin, 0.25 μg/mL amphotericin B, and 0.2 mM L-glutamine at 37 °C in a humidified 5% CO2 incubator. […]
HFF cells were detached from a flask using 0.25% Trypsin with 0.2 g/L EDTA (Sigma T4049) and washed with culture media. Cells were incubated with a serial dilution of each compound, or media/DMSO alone. Cycloheximide at 10 µg/mL was used as a positive control to determine background fluorescence. Approximately 5 000 cells were seeded in each well. Plates were incubated at 37 °C for 72 hours (until reaching confluency) and the media was removed. Plates were transferred to a -18 °C freezer. Plates were thawed and SYBR Safe DNA Gel Stain (final concentration 1/10,000) diluted in lysis buffer (as above) was added. Fluorescence was read at 490 nm excitation/ 520 nm emission on a FLUOstar Optima fluorescence plate reader. […]

[2] = test system: P. falciparum stage V gametocytes; test: P. falciparum gametocyte viability assay (MitoTracker, flow cytometry), stage V; assay type: cell-based, Plasmodium falciparum; conditions: 48 h
Experimental: (§1) Gametocyte assays commenced seven days (stage III–IV) or ten days (stage V) post-invasion. […]
(§2) Plasmodium falciparum Gametocyte Viability Assays:
(§3) Asexual P. falciparum parasites were induced to form gametocytes as described (21).
(§4) Synchronized trophozoite-stage parasites at 2% parasitaemia were incubated overnight and […]
(§5) haematocrit maintained at 4%. On the subsequent day (designated as day 0) of gametocytogenesis, the culture containing early ring-stage parasites was first purified by sorbitol synchronisation to remove asynchronous trophozoites, and passed through a magnetic field in a sterile MACS® column in a SuperMACSTM II magnet to remove remaining late-stage parasites or later-stage gametocytes (negative selection). The culture medium was supplemented with 50 mM N-acetyl-D-glucosamine to inhibit asexual parasite proliferation, and changed daily. Sorbitol treatment was performed on Day 1, 5, and 6 to further remove asexual parasites. Gametocytes were magnetically enriched (positive selection) in a sterile column with a SuperMACSTM II magnet and eluted in culture media with 50 mM N-acetyl-D-glucosamine. These gametocytes were incubated overnight at 37 °C under microaerophilic conditions, and purity was assessed by examination under a light microscope (400× […]
(§6) Gametocyte viability was assessed as described by Ridgway et al. (21) with modifications.
(§7) Compounds or solvent controls (DMSO) were serially diluted across 96-well plates in culture media supplemented with 50 mM N-acetyl-D-glucosamine. Culture media without compound was used as a negative control. […]
(§8) control to determine background gametocyte fluorescence. Stage III-IV gametocytes (Day 7) or stage V (day 10) gametocytes were concentrated and added to the plate with 200 µL per well. The plate was incubated for 48 hours at 37 °C under humid microaerophilic conditions.
(§9) Parasites were then stained with 500 nM MitoTrackerTM Deep Red FM and 5 μg/ml Hoechst […]
(§10) cytometer as described above. […]
(§11) excluded. Live (positive) and dead (negative) gametocytes were differentiated by […]
(§12) percentage of each was calculated. […]

[3] = test system: P. falciparum stage III–IV gametocytes; test: P. falciparum gametocyte viability assay (MitoTracker, flow cytometry), stage III-IV; assay type: cell-based, Plasmodium falciparum; conditions: 48 h; for Gametocyte stage III-IV viability, percentage of control: replicate values, source data Fig. 2C, listed as BC5B
Experimental: as §1, §2, §3, §4, §5, §6, §7, §8, §9, §10, §11, §12

[4] = test system: human hepatoma cells (Huh7); test: Human hepatoma viability assay (CellTiter-Blue); assay type: cell-based; conditions: for Huh7 viability, dose-response data points (Figure 3F): replicate data points, listed as BC5B
Experimental: Huh7 hepatoma viability assays were conducted in the same manner as the P. berghei assays, with metabolic capacity (indicating viability) measured with a fluorescence microplate reader after incubation with CellTiter-Blue® (Promega) for 3 h.
Appendix Fraser/Curtis et al. […]
Human Hepatoma Viability Assays:
The Huh7 hepatoma cell line (ATCC) was maintained under routine culture conditions in Dulbecco's Modified Eagle Medium (DMEM) containing 3.7 g/L NaHCO3 supplemented with 10% foetal bovine serum (FBS), 100 units/mL penicillin, and 100 μg/mL streptomycin at 37 °C in a humidified 5% CO2 incubator.
Viability assays were performed in parallel to the P. berghei growth inhibition. 10,000 Huh7 cells were seeded in 96-well and dark-sided microplates (Greiner Bio One) and cultured at 37°C, 5% CO2 and 80% humidity. The next day, the media was replaced with compounds or solvent controls (DMSO) serially diluted in culture media. Media was partially replaced with new drug dilutions over the following two days. After 48 hours, CellTiter-Blue® (Promega) was added according to the manufacturer’s instructions and incubated for 3 hours. Fluorescence intensity was measured with 530/25 ex and 590/20 em in a Synergy HTX plate reader (Agilent).

Structure (SMILES): COc1cc(NC(C)CCCNC(=O)CCC(=O)O[C@H]2CC[C@H]3[C@@H]4CC=C5C[C@@H](O)CC[C@]5(C)[C@H]4CC[C@]23C)c2ncccc2c1 (stereo partly shown) [C-17-PQ]
- Maximal inhibition of fibroblast growth at the range of concentrations tested ([1]; HFF): ≤ 30%
- IC50 ([1]; Homo sapiens, Fibroblast, read-out: IC50, human fibroblast growth inhibition): > 290 µM
- Fold reduction in IC50 compared to primaquine alone [2]: > 2 fold
- viability at 3.125 µM ([2]; Plasmodium falciparum, read-out: Gametocyte stage V viability, percentage of control, 3.125000000 uM, 48 h, replicate values, source data Fig. 2D): 74.7%
- IC50 ([2]; Plasmodium falciparum, read-out: IC50, P. falciparum gametocyte stage V inhibition): 6.8 µM
- Gametocyte stage III-IV viability, percentage of control ([3]; 0.390625000 uM, 0.390625 µM): 106.6% and 106.4% and 106.3% and 105.9% and 97.84% and 98.56% and 99.18% and 96.09% and 94.81% and 99.34% and 96.51%
- Gametocyte stage III-IV viability, percentage of control ([3]; 0.781250000 uM, 0.78125 µM): 105.6% and 103.6% (2×) and 99.85% and 95.38% and 98.97% and 96.71% and 98.76% and 95.09% and 98.49% and 100.2%
- Gametocyte stage III-IV viability, percentage of control ([3]; 1.562500000 uM, 1.5625 µM): 98.2% and 92.41% and 99.85% and 96.05% and 86.9% and 96.5% and 96.91% and 95.26% and 86.31% and 88.01% and 87.16%
- Gametocyte stage III-IV viability, percentage of control ([3]; 3.125000000 uM, 3.125 µM): 76.23% and 73.04% and 83.77% and 78.85% and 72.15% and 82.91% and 79.82% and 79.41% and 67.61% and 67.33% and 65.91%
- Gametocyte stage III-IV viability, percentage of control ([3]; 6.250000000 uM, 6.25 µM): 47.47% and 48.87% and 53.06% and 57.19% and 51.38% and 37.08% and 52.02% and 49.97% and 47.91% and 50.9% (2×) and 52.03%
- Gametocyte stage III-IV viability, percentage of control ([3]; 12.500000000 uM, 12.5 µM): 32.49% and 39.99% and 32.61% and 29.26% and 32.88% and 27.73% and 25.88% and 43.81%
- Gametocyte stage III-IV viability, percentage of control ([3]; 25.000000000 uM): 17.71% and 16.11% and 15.11% and 33.28% and 21.89% and 14.3% and 17.64% and 12.08% and 12.7% and 13.79% and 6.704% and 7.271%
- Gametocyte stage III-IV viability, percentage of control ([3]; 50.000000000 uM): 5.639% and 8.492% and 6.658% and 16.42% and 3.442% and -2.383% and -3.188% and -11.09% and -14.21% and 3.059% and -3.824% and -12.14%
- Gametocyte stage III-IV viability, percentage of control ([3]; 100.000000000 uM): 3.289% and 0.9211% and -0.4605% and 9.774% and -7.24% and -17.63% and -19.17% and -25.26% and -26.31% and -15.93% and -26.87% and -31.48%
- Fold reduction in IC50 compared to primaquine alone [3]: 9 fold
- viability at 0.390625 µM ([3]; Plasmodium falciparum, read-out: Gametocyte stage III-IV viability, percentage of control, 0.390625000 uM, 48 h, replicate values, source data Fig. 2C): 105%
- viability at 0.78125 µM ([3]; Plasmodium falciparum, read-out: Gametocyte stage III-IV viability, percentage of control, 0.781250000 uM, 48 h, replicate values, source data Fig. 2C): 101%
- viability at 1.5625 µM ([3]; Plasmodium falciparum, read-out: Gametocyte stage III-IV viability, percentage of control, 1.562500000 uM, 48 h, replicate values, source data Fig. 2C): 95%
- viability at 3.125 µM ([3]; Plasmodium falciparum, read-out: Gametocyte stage III-IV viability, percentage of control, 3.125000000 uM, 48 h, replicate values, source data Fig. 2C): 72.4%
- viability at 12.5 µM ([3]; Plasmodium falciparum, read-out: Gametocyte stage III-IV viability, percentage of control, 12.500000000 uM, 48 h, replicate values, source data Fig. 2C): 31.7%
- IC50 ([3]; Plasmodium falciparum, read-out: IC50, P. falciparum gametocyte stage III-IV inhibition, 48 h): 7.1 µM
- Huh7 viability, dose-response data points (Figure 3F) ([4]; 0.015241580 uM, 0.0152416 µM): 98.89 and 98.22 and 98.39 and 94.42 and 103 and 100.2 and 102.1 and 98.78
- Huh7 viability, dose-response data points (Figure 3F) ([4]; 0.045724740 uM, 0.0457247 µM): 96.51 and 98.69 and 94.1 and 96.38 and 90.79 and 82.31 and 84.01 and 89.64
- Huh7 viability, dose-response data points (Figure 3F) ([4]; 0.137174210 uM, 0.137174 µM): 106.8 and 96.95 and 95.92 and 94.98 and 96.42 and 101.8 and 95.52 and 109.1
- Huh7 viability, dose-response data points (Figure 3F) ([4]; 0.411522630 uM, 0.411523 µM): 95.23 and 97.59 and 96.23 and 88.28 and 94.64 and 96.4 and 105 and 96.39
- Huh7 viability, dose-response data points (Figure 3F) ([4]; 1.234567900 uM, 1.23457 µM): 95.71 and 98.77 and 99.42 and 84.3 and 74.81 and 88.03 and 77.15 and 83 and 86.37
- Huh7 viability, dose-response data points (Figure 3F) ([4]; 3.703703700 uM, 3.7037 µM): 88.28 and 89.97 and 90.65 and 52.83 and 57.73 and 57.82 and 45.17 and 51.57 and 42.91
- Huh7 viability, dose-response data points (Figure 3F) ([4]; 11.111111100 uM, 11.1111 µM): 75.95 and 74.95 and 78.75 and 46.5 and 49.1 and 49.17 and 39.05 and 40.11 and 38.75
- Huh7 viability, dose-response data points (Figure 3F) ([4]; 33.333333300 uM, 33.3333 µM): 79.29 and 78.52 and 76.32 and 47.53 and 46.72 and 48.69 and 34.13 and 38.39 and 36.44
- Huh7 viability, dose-response data points (Figure 3F) ([4]; 100.000000000 uM): 80.41 and 81.45 and 81.11 and 48.76 and 54.16 and 52.59 and 35.21 and 39.74 and 37.9
- IC50 ([4]; Homo sapiens, Huh-7, 48 h, read-out: IC50, human hepatoma inhibition (viability)): > 50 µM
